In PubChem BioAssay (NCI):
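Tested at 5 concentrations; 48 h exposure; 96-well plates; endpoints linearly interpolated, else capped at highest concentration. At the GI50, growth is halved. TGI denotes the concentration required for complete inhibition of growth.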

Assays:
Experiment in all cases: NCI tumour cell line growth inhibition, 48 h
[1] = test system: SK-MEL-5 melanoma
[2] = test system: RPMI-8226 leukemia
[3] = test system: OVCAR-5 ovarian
[4] = test system: NCI-H226 lung
[5] = test system: EKVX NSCLC
[6] = test system: SNB-75 CNS
[7] = test system: SN12C renal
[8] = test system: ACHN renal
[9] = test system: 786-0 renal
[10] = test system: A549 NSCLC

## CC1CCCCCC(=O)c2c(O)cc(O)cc2CC(=O)O1 (stereo not drawn)
[1]
  TGI: > 100 µM
[2]
  TGI: > 100 µM
[3]
  TGI: > 100 µM
[4]
  TGI: > 100 µM
[5]
  TGI: > 100 µM
[6]
  TGI: > 100 µM
[7]
  TGI: > 100 µM
[8]
  TGI: > 100 µM
[9]
  TGI: > 100 µM
[10]
  TGI: > 100 µM

## CCC(=C(c1ccc(OCCN2CCCCC2)cc1)c1ccc(OCCN2CCCCC2)cc1)c1ccc(Cl)cc1
[1]
  GI50: 2.83 µM
  TGI: 5.3 µM
[2]
  GI50: 3.6 µM
  TGI: > 16.7 µM
[3]
  GI50: > 16.7 µM
  TGI: > 16.7 µM
[4]
  GI50: > 16.7 µM
  TGI: > 16.7 µM
[5]
  GI50: > 16.7 µM
  TGI: > 16.7 µM
[6]
  GI50: > 16.7 µM
  TGI: > 16.7 µM
[7]
  GI50: > 16.7 µM
  TGI: > 16.7 µM
[8]
  GI50: 7.12 µM
  TGI: > 16.7 µM
[9]
  GI50: 2.51 µM
  TGI: 5.09 µM
[10]
  GI50: 7.42 µM
  TGI: > 16.7 µM

## O=c1nc2n(-c3cccc(Cl)c3)c3ccc([N+](=O)[O-])cc3cc-2c(=O)[nH]1
[1]
  GI50: 5.36 µM
  TGI: 12.8 µM
[2]
  GI50: 3.13 µM
  TGI: 10.8 µM
[3]
  GI50: 11.7 µM
  TGI: > 25 µM
[4]
  GI50: 5.51 µM
  TGI: 13.6 µM
[5]
  GI50: 11.9 µM
  TGI: > 25 µM
[6]
  GI50: 11.7 µM
  TGI: > 25 µM
[7]
  GI50: 4.55 µM
  TGI: 10.6 µM
[8]
  GI50: 5.32 µM
  TGI: 16 µM
[9]
  GI50: 4.49 µM
  TGI: 9.5 µM
[10]
  GI50: 12.7 µM
  TGI: > 25 µM

## CC(C)(CN1CCCCC1)C(=O)/C=C/c1ccccc1
[1]
  TGI: 25.8 µM
[2]
  TGI: 38.3 µM
[3]
  TGI: 40.4 µM
[4]
  TGI: 69.8 µM
[5]
  TGI: 35.2 µM
[6]
  TGI: 39.3 µM
[7]
  TGI: 42.3 µM
[8]
  TGI: 96.6 µM
[9]
  TGI: 27.3 µM
[10]
  TGI: 52.7 µM

## CC(=O)/C(=C\c1ccc(Cl)cc1)c1ccccc1
[1]
  GI50: 0.0818 µM
  TGI: 1.14 µM
[2]
  GI50: 0.133 µM
  TGI: 25.9 µM
[3]
  TGI: > 100 µM
[4]
  GI50: 2.3 µM
  TGI: > 90.1 µM
[5]
  GI50: 1.82 µM
  TGI: > 100 µM
[6]
  GI50: 0.0691 µM
  TGI: > 100 µM
[7]
  GI50: 0.541 µM
  TGI: > 100 µM
[8]
  GI50: 0.548 µM
  TGI: > 70 µM
[9]
  GI50: 0.128 µM
  TGI: > 100 µM
[10]
  GI50: 0.255 µM
  TGI: > 100 µM

## COc1cc(/C=C/C(=O)c2cccc(-n3cc(-c4ccccc4)[nH]c3=O)c2)cc(OC)c1OC
[1]
  GI50: 1.4 µM
  TGI: 2.69 µM
[2]
  GI50: 0.626 µM
  TGI: > 100 µM
[3]
  GI50: 1.88 µM
  TGI: 3.74 µM
[4]
  GI50: 14.6 µM
  TGI: 97.4 µM
[5]
  GI50: 2.3 µM
  TGI: 11.4 µM
[6]
  GI50: 4.47 µM
  TGI: 16.8 µM
[7]
  GI50: 2.09 µM
  TGI: 10.7 µM
[8]
  GI50: 1.6 µM
  TGI: 3.21 µM
[9]
  GI50: 1.38 µM
  TGI: 2.97 µM
[10]
  GI50: 4.03 µM
  TGI: > 100 µM

## O=c1[nH]c2ccccc2n1C1CCNCC1
[1]
  GI50: > 100 µM
  TGI: > 100 µM
[2]
  GI50: > 100 µM
  TGI: > 100 µM
[3]
  GI50: > 100 µM
  TGI: > 100 µM
[4]
  GI50: > 100 µM
  TGI: > 100 µM
[5]
  GI50: > 100 µM
  TGI: > 100 µM
[6]
  GI50: > 100 µM
  TGI: > 100 µM
[7]
  GI50: > 100 µM
  TGI: > 100 µM
[8]
  GI50: > 100 µM
  TGI: > 100 µM
[9]
  GI50: > 100 µM
  TGI: > 100 µM
[10]
  GI50: > 100 µM
  TGI: > 100 µM

## O=[N+]([O-])c1ccc(C2=NCCO2)cc1
[1]
  GI50: > 100 µM
  TGI: > 100 µM
[2]
  GI50: > 100 µM
  TGI: > 100 µM
[3]
  GI50: > 100 µM
  TGI: > 100 µM
[4]
  GI50: > 100 µM
  TGI: > 100 µM
[5]
  GI50: > 100 µM
  TGI: > 100 µM
[6]
  GI50: > 100 µM
  TGI: > 100 µM
[7]
  GI50: > 100 µM
  TGI: > 100 µM
[8]
  GI50: > 100 µM
  TGI: > 100 µM
[9]
  GI50: > 100 µM
  TGI: > 100 µM
[10]
  GI50: > 100 µM
  TGI: > 100 µM

## CNC(=O)Oc1cc(C(C)C)ccc1Sc1ccc(C(C)C)cc1OC(=O)NC
[1]
  GI50: 2.5 µM
  TGI: 11.8 µM
[2]
  GI50: 1.83 µM
  TGI: 7.48 µM
[3]
  GI50: 11.4 µM
  TGI: 25.7 µM
[4]
  GI50: 10 µM
  TGI: 25.5 µM
[5]
  GI50: 1.59 µM
  TGI: 7.14 µM
[6]
  GI50: 2.88 µM
  TGI: 12.2 µM
[7]
  GI50: 7 µM
  TGI: 24 µM
[8]
  GI50: 6.92 µM
  TGI: 24.4 µM
[9]
  GI50: 11.5 µM
  TGI: 28.7 µM
[10]
  GI50: 5.22 µM
  TGI: 18.4 µM

## COC(=O)[C@@H](C)C[C@H](Cc1ccccc1)NC(=O)c1nc([C@@H](C[C@H](C(C)C)N(C)C(=O)[C@@H](NC(=O)[C@H]2C[C@H](O)CCN2C)C(C)C)OC(C)=O)sc1C(C)C
[1]
  GI50: 0.00369 µM
  TGI: 0.185 µM
[2]
  GI50: 0.00173 µM
  TGI: > 9.92 µM
[3]
  GI50: 0.0428 µM
  TGI: > 11.1 µM
[4]
  GI50: 0.0257 µM
[5]
  GI50: 0.161 µM
  TGI: > 11.1 µM
[6]
  GI50: 0.00462 µM
  TGI: 3.85 µM
[7]
  GI50: 0.00671 µM
  TGI: 3.3 µM
[8]
  GI50: 0.101 µM
  TGI: > 11.1 µM
[9]
  GI50: 0.0337 µM
  TGI: 4.65 µM
[10]
  GI50: 0.0519 µM
  TGI: > 11.1 µM

## Cc1cc(N(CCC#N)CCC#N)ccc1/C=C(\NC(=O)/C=C/c1ccccc1)C(=O)N=[N+]=[N-]
[1]
  TGI: > 100 µM
[2]
  TGI: > 100 µM
[3]
  TGI: > 100 µM
[4]
  TGI: > 100 µM
[5]
  TGI: > 100 µM
[6]
  TGI: 62 µM
[7]
  TGI: > 100 µM
[8]
  TGI: > 100 µM
[9]
  TGI: > 100 µM
[10]
  TGI: > 100 µM

## CN(C)CCC(N)(P(=O)([O-])[O-])P(=O)([O-])[O-].N.N.[Pt+2]
[1]
  GI50: > 100 µM
  TGI: > 100 µM
[2]
  GI50: > 100 µM
  TGI: > 100 µM
[3]
  GI50: > 100 µM
  TGI: > 100 µM
[4]
  GI50: > 100 µM
  TGI: > 100 µM
[5]
  GI50: > 100 µM
  TGI: > 100 µM
[6]
  GI50: > 100 µM
  TGI: > 100 µM
[7]
  GI50: > 100 µM
  TGI: > 100 µM
[8]
  GI50: > 100 µM
  TGI: > 100 µM
[9]
  GI50: > 100 µM
  TGI: > 100 µM
[10]
  GI50: > 100 µM
  TGI: > 100 µM

## C/C(=C\C(=O)O[C@H]1[C@@H]2[C@H](C)CC[C@H]2[C@]2(C)O[C@@]1(C1CCCCC1)C[C@H]2OC(=O)CO)c1ccccc1
[1]
  GI50: 6.45 µM
  TGI: 11.9 µM
[2]
  GI50: 7.2 µM
  TGI: 16.6 µM
[3]
  GI50: 7 µM
  TGI: 12.9 µM
[4]
  GI50: 5.98 µM
  TGI: 12.3 µM
[5]
  GI50: 6.46 µM
  TGI: 12.5 µM
[6]
  GI50: 0.331 µM
  TGI: 7.21 µM
[7]
  GI50: 0.0228 µM
  TGI: 7.18 µM
[8]
  GI50: 0.0147 µM
  TGI: 6.02 µM
[9]
  GI50: 5.11 µM
  TGI: 10.6 µM
[10]
  GI50: 6.61 µM
  TGI: 12.4 µM
